The values below come from US8093275B2, “Oxazolone and pyrrolidinone-substituted pryidine amides as P2X3 and P2X2/3 antagonists” (Roche Palo Alto LLC, priority 2009, dated 2012).

SMILES strings stand for the structures.

The target of one assay is T1, rat P2X3 receptor (Rattus norvegicus, UniProt P49654).
T1 construct: expressed in transfected cells; host or cells: CHO-K1
T1 sequence (P49654 1-397): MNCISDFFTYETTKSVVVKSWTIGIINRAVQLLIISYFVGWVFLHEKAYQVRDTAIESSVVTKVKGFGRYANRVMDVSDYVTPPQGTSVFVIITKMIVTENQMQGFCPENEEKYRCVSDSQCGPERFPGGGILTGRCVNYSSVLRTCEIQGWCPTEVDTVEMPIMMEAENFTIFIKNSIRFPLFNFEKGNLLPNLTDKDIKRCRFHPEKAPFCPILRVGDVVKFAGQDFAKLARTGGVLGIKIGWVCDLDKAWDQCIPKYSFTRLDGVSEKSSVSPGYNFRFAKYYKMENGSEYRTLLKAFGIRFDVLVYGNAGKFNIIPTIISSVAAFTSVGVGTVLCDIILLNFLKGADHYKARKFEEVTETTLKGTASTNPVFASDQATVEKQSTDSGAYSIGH
The experiment in a line: P2X3 FLIPR (Fluorometric Imaging Plate Reader) assay. The class given is cell-based. The note with it: CHO-K1 cells transfected with rat P2X3; agonist α,β-meATP 1 μM; FLIPR calcium fluorescence; read-out: pKi P2X3 (converted). The procedure: (§1) CHO-K1 cells were transfected with cloned rat P2X3 or human P2X2/3 receptor subunits and passaged in flasks. 18-24 hours before the FLIPR experiment, cells were released from their flasks, centrifuged, and resuspended in nutrient medium at 2.5×10^5 cells/ml. The cells were aliquoted into black-walled 96-well plates at a density of 50,000 cells/well and incubated overnight in 5% CO2 at 37° C. On the day of the experiment, cells were washed in FLIPR buffer (calcium- and magnesium-free Hank's balanced salt solution, 10 mM HEPES, 2 mM CaCl2, 2.5 mM probenecid; FB). Each well received 100 μl FB and 100 μl of the fluorescent dye Fluo-3 AM [2 μM final conc.]. After a 1 hour dye loading incubation at 37° C., the cells were washed 4 times with FB, and a final 75 μl/well FB was left in each well.
(§2) Test compounds (dissolved in DMSO at 10 mM and serially diluted with FB) or vehicle were added to each well (25 μl of a 4× solution) and allowed to equilibrate for 20 minutes at room temperature. The plates were then placed in the FLIPR and a baseline fluorescence measurement (excitation at 488 nm and emission at 510-570 nm) was obtained for 10 seconds before a 100 μl/well agonist or vehicle addition. The agonist was a 2× solution of α,β-meATP producing a final concentration of 1 μM (P2X3) or 5 μM (P2X2/3). Fluorescence was measured for an additional 2 minutes at 1 second intervals after agonist addition. A final addition of ionomycin (5 μM, final concentration) was made to each well of the FLIPR test plate to establish cell viability and maximum fluorescence of dye-bound cytosolic calcium. Peak fluorescence in response to the addition of α,β-meATP (in the absence and presence of test compounds) was measured and inhibition curves generated using nonlinear regression. PPADS, a standard P2X antagonist, was used as a positive control.

The target in another assay is T2, human P2X2/3 receptor (Homo sapiens, UniProt P56373+Q9UBL9).
T2 construct: expressed in transfected cells; host or cells: CHO-K1
T2 sequence (Q9UBL9 1-471): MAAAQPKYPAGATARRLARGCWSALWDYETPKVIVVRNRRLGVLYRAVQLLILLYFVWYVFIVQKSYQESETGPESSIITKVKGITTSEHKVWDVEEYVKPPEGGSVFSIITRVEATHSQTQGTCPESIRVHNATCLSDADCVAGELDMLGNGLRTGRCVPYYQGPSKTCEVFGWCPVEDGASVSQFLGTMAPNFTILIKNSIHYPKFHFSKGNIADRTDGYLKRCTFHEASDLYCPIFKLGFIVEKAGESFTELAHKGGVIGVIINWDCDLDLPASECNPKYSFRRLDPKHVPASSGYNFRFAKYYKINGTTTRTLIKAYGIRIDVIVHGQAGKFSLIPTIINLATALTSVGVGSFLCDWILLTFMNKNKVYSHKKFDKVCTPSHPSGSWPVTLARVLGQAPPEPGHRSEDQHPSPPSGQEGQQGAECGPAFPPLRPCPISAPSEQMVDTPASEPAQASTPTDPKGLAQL
T2 sequence (P56373 1-397): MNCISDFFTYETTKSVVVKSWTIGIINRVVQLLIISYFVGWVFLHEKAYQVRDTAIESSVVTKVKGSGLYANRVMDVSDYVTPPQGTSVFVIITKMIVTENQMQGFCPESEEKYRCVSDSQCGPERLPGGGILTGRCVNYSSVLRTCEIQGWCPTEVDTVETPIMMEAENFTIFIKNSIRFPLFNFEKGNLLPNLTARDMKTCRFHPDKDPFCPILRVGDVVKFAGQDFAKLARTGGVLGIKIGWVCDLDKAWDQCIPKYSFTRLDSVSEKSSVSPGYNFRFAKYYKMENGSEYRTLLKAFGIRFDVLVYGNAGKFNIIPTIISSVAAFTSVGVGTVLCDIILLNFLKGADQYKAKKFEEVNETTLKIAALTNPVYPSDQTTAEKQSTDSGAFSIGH
Briefly: P2X2/3 FLIPR (Fluorometric Imaging Plate Reader) assay. The note with it: CHO-K1 cells transfected with human P2X2/3; agonist α,β-meATP 5 μM; FLIPR calcium fluorescence; read-out: pKi P2X2/3 (converted). Type of assay: cell-based. The procedure:
as §1, §2

For `Cc1ccc(-c2cc(C(=O)NC(C)c3cnccn3)cc(N3C(=O)Cc4ccccc43)c2)nc1` (stereo not shown) [Compound 6, 3-(5-Methyl-pyridin-2-yl)-5-(2-oxo-2,3-dihydro-indol-1-yl)-N-(1-pyrazin-2-yl-ethyl)-benzamide], the Ki was 7.41 nM at rat P2X3 receptor and 117 nM on human P2X2/3 receptor.
The like results for `Cc1ccc(-c2cc(C(=O)NCc3cncnc3)cc(-n3c(=O)oc4ccccc43)c2)nc1` [Compound 12, 3-(5-Methyl-pyridin-2-yl)-5-(2-oxo-benzooxazol-3-yl)-N-pyrimidin-5-ylmethyl-benzamide] were, in that order, 6.03 nM and 141 nM.
In the case of `CCC1COC(=O)N1c1cc(C(=O)N[C@@H](C)CO)cc(-c2ccc(C)cn2)c1` (stereo partly drawn) [Compound 17, 3-(4-Ethyl-2-oxo-oxazolidin-3-yl)-N-((S)-2-hydroxy-1-methyl-ethyl)-5-(5-methyl-pyridin-2-yl)-benzamide], the Ki at rat P2X3 receptor is 10.5 nM; on human P2X2/3 receptor it was 4900 nM.
The like results for `Cc1ccc(-c2cc(C(=O)NC(C)c3cnccn3)cc(-n3c(=O)oc4ccccc43)c2)cc1` (stereo not shown) [Compound 50, 4′-Methyl-5-(2-oxo-benzooxazol-3-yl)-biphenyl-3-carboxylic acid (1-pyrazin-2-yl-ethyl)-amide] were, in that order, 12.3 nM and 26.3 nM.
Regarding `Cc1ccc(-c2cc(C(=O)NCc3cnc(C)cn3)cc(N3C(=O)Cc4ccccc43)c2)nc1` [Compound 5, N-(5-Methyl-pyrazin-2-ylmethyl)-3-(5-methyl-pyridin-2-yl)-5-(2-oxo-2,3-dihydro-indol-1-yl)-benzamide], the Ki was 8.91 nM at rat P2X3 receptor and 89.1 nM at human P2X2/3 receptor.
The like results for `Cc1ccc(-c2cc(C(=O)NCc3ncc(C)cn3)cc(-n3c(=O)oc4ccccc43)c2)nc1` [Compound 32, 3-(5-Methyl-pyridin-2-yl)-N-(5-methyl-pyrimidin-2-ylmethyl)-5-(2-oxo-benzooxazol-3-yl)-benzamide] were, in that order, 4.57 nM and 24.5 nM.
As for `Cc1ccc(-c2cc(C(=O)NCc3ccc(C)nn3)cc(-n3c(=O)oc4ccccc43)c2)nc1` [Compound 13, N-(6-Methyl-pyridazin-3-ylmethyl)-3-(5-methyl-pyridin-2-yl)-5-(2-oxo-benzooxazol-3-yl)-benzamide], the Ki on rat P2X3 receptor was 7.76 nM; on human P2X2/3 receptor, 21.4 nM.
The like results for `Cc1ccc(-c2cc(C(=O)NCc3cnc(C)cn3)cc(N3C(=O)OC[C@H]3C(C)C)c2)nc1` [Compound 11, 3-((R)-4-Isopropyl-2-oxo-oxazolidin-3-yl)-N-(5-methyl-pyrazin-2-ylmethyl)-5-(5-methyl-pyridin-2-yl)-benzamide] were, in that order, 3.98 nM and 20.4 nM.
The corresponding values for `Cc1ccc(-c2cc(C(=O)NCc3cnc(C)nc3)cc(-n3c(=O)oc4ccccc43)c2)nc1` [Compound 33, 3-(5-Methyl-pyridin-2-yl)-N-(2-methyl-pyrimidin-5-ylmethyl)-5-(2-oxo-benzooxazol-3-yl)-benzamide] are 6.17 nM and 13.8 nM.
On to `CCC1COC(=O)N1c1cc(C(=O)NCc2cnc(C)cn2)cc(-c2ccc(C)cn2)c1` (stereo not shown) [Compound 19, 3-(4-Ethyl-2-oxo-oxazolidin-3-yl)-N-(5-methyl-pyrazin-2-ylmethyl)-5-(5-methyl-pyridin-2-yl)-benzamide], for which the Ki was 4.27 nM on rat P2X3 receptor and 66.1 nM on human P2X2/3 receptor.
The like results for `Cc1ccc(-c2cc(C(=O)N[C@@H](C)CO)cc(N3C(=O)OC[C@H]3C(C)C)c2)nc1` [Compound 9, N-((S)-2-Hydroxy-1-methyl-ethyl)-3-((R)-4-isopropyl-2-oxo-oxazolidin-3-yl)-5-(5-methyl-pyridin-2-yl)-benzamide] were, in that order, 2.24 nM and 195 nM.
